Results from ChEMBL document CHEMBL1201862, “PubChem BioAssay data set” (2004).
Calls of active or inactive are those of the source.

Key:
[1] = molecular target: T1, Corticotropin-releasing factor receptor 2/Corticotropin-releasing factor-binding protein (Homo sapiens, UniProt P24387+Q13324); test: Dose Response confirmation of uHTS hits for small molecule antagonists of the CRF-binding protein and CRF-R2 receptor complex.; assay type: functional; settings: read-out: IC50_Mean
T1 sequence (Q13324 whole entry): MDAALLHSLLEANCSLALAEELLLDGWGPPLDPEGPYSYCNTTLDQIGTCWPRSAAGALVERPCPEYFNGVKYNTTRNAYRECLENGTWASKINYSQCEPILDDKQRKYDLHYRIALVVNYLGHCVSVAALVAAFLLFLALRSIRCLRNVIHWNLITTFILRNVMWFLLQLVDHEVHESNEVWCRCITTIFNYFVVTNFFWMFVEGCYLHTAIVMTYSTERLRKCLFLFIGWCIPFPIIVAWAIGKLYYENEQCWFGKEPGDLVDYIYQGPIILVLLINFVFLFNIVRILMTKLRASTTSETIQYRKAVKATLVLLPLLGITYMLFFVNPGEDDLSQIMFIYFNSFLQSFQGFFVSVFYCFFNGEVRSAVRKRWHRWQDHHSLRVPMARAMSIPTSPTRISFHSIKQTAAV
T1 sequence (P24387 whole entry): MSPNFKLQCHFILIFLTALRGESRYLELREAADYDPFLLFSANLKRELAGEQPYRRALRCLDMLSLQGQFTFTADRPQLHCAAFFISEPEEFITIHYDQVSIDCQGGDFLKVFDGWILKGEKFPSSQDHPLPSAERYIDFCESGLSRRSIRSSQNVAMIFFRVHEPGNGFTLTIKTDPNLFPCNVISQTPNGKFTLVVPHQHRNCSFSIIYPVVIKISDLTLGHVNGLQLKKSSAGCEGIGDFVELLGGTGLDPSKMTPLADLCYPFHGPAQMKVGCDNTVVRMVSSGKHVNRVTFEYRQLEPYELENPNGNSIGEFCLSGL

[2] = molecular target: T1, Corticotropin-releasing factor receptor 2/Corticotropin-releasing factor-binding protein; test: activators of CRF receptor 2 with binding protein – uHTS hits, confirmation (AID 602473); assay type: functional; settings: read-out: EC50_Mean
[3] = blockers of CRF-binding protein–CRF-R2 complex – cell-based, uHTS hits, 384-well, dose response (AID 651639); assay type: functional, Homo sapiens; settings: read-out: IC50_Mean
[4] = THP-1 cell cytotoxicity, dose response, cytotoxicity control for non-replicating M. tuberculosis project (AID 489025); assay type: functional
[5] = Vero E6 cell cytotoxicity, dose response, cytotoxicity control for non-replicating M. tuberculosis project, secondary assay (AID 492998); assay type: functional, VeroE6; settings: Vero C1008
[6] = cells; assay type: functional
[7] = molecular target: Nuclear receptor subfamily 5 group A member 2 (Homo sapiens, UniProt O00482); assay type: functional, cell-based;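 note: HEK293T cells transfected with LRH-1 and a StAR promoter luciferase reporter; potency for inhibitors that lower LRH-1 driven reporter light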
[8] = molecular target: Steroidogenic factor 1 (Homo sapiens, UniProt Q13285); test: Counterscreen for inverse agonists of the liver receptor homolog-1 (LRH-1; NR5A2): Luminescence-based cell-based high throughput dose response assay to identify inverse agonists of the Steroidogenic Factor 1 Nuclear Receptor (SF1; NR5A1).; assay type: functional
[9] = nonselective StAR promoter luciferase inhibitors – cell-based, luminescence, luciferase reporter, counter-screen for LRH-1 inverse agonist project, dose response (AID 651969); assay type: functional
[10] = NIH-3T3 fibroblast cytotoxicity, dose response, cytotoxicity control, cell-based, fluorescence, Alamar Blue, secondary assay (AID 2327); assay type: functional;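 note: NIH-3T3 mouse fibroblasts cultured with fluconazole at 8 µg/mL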
[11] = fluconazole-exposed Candida albicans growth modulators – fluorescence, retest, confirmation (AID 2467); assay type: functional, cell-based
[12] = molecular target: T2, Short transient receptor potential channel 4 (Mus musculus, UniProt Q9QUQ5); test: block of DAMGO-driven TRPC4 calcium entry – cell-based, HEK293 TRPC4/mu-opioid, Fluo-4 calcium, dose response (AID 434942); assay type: functional;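 note: potency of inhibitors blocking the TRPC4 calcium response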
T2 sequence (Q9QUQ5 whole entry): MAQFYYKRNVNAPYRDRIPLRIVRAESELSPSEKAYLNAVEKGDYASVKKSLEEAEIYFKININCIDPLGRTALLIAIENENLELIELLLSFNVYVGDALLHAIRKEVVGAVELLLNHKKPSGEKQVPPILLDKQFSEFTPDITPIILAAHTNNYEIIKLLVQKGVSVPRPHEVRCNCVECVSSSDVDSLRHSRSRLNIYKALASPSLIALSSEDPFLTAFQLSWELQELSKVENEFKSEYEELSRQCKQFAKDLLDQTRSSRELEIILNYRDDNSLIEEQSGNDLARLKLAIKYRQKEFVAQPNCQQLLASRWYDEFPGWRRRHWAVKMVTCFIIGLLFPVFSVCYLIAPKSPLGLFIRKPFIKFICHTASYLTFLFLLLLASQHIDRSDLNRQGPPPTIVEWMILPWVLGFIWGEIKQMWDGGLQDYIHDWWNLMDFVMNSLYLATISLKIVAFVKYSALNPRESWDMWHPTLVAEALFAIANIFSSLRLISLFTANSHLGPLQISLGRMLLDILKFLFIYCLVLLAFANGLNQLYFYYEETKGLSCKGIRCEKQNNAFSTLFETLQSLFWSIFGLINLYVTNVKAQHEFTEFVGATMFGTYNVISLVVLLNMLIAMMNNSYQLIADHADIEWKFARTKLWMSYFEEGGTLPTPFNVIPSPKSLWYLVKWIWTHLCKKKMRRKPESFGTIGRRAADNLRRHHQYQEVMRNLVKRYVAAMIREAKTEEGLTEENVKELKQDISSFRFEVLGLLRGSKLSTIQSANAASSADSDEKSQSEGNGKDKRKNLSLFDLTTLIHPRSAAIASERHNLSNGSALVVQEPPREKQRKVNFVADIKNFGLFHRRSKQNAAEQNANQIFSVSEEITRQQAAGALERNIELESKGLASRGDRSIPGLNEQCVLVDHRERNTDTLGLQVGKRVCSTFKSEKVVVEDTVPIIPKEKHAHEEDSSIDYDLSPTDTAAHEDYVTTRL

[13] = molecular target: Troponin, cardiac muscle (Homo sapiens, UniProt P19429+P45379+P63316); test: Fluorescence-based biochemical high throughput dose response assay for activators of the calcium sensitivity of cardiac Regulated Thin Filaments (RTF). [Related pubchem assays (depositor defined):AID493008, AID493018, AID504382, AID504383]; assay type: protein-complex assay
[14] = molecular target: T3, Replicative DNA helicase DnaB (Mycobacterium tuberculosis, UniProt P9WMR3); test: DnaB intein splicing inhibitors, dose response, biochemical, cell-free fluorescence (AID 449749); assay type: functional
T3 sequence (P9WMR3 whole entry): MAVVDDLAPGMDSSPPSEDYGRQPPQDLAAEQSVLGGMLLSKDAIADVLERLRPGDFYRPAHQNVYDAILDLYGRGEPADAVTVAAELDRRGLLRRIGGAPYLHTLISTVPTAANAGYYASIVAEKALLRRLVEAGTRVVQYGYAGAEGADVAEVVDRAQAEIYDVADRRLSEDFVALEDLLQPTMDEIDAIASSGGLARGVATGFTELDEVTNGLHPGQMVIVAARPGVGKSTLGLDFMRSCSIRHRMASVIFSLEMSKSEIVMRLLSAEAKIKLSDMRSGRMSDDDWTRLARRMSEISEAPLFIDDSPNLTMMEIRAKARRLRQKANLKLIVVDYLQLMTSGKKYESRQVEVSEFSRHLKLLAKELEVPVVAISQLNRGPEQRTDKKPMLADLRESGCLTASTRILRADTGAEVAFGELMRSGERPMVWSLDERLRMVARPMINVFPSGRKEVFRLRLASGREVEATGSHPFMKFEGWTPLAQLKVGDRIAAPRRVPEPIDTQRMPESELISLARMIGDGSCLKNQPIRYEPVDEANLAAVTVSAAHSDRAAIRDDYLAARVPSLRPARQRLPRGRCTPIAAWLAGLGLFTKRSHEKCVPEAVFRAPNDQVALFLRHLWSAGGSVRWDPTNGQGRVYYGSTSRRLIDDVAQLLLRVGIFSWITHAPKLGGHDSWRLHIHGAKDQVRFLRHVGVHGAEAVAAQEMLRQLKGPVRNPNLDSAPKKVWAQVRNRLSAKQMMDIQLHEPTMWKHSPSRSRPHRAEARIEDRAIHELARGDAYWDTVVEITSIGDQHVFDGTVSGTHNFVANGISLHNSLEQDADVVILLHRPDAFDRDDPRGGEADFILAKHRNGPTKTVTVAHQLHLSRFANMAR

[15] = molecular target: T4, Protein RecA (Mycobacterium tuberculosis, UniProt P9WHJ3); test: Fluorescence Cell-Free Homogeneous Dose Retest to Identify Inhibitors of RecA-Intein Splicing Activity. [Related pubchem assays (depositor defined):AID2097, AID2223, AID489010, AID492950]; assay type: functional
T4 sequence (P9WHJ3 whole entry): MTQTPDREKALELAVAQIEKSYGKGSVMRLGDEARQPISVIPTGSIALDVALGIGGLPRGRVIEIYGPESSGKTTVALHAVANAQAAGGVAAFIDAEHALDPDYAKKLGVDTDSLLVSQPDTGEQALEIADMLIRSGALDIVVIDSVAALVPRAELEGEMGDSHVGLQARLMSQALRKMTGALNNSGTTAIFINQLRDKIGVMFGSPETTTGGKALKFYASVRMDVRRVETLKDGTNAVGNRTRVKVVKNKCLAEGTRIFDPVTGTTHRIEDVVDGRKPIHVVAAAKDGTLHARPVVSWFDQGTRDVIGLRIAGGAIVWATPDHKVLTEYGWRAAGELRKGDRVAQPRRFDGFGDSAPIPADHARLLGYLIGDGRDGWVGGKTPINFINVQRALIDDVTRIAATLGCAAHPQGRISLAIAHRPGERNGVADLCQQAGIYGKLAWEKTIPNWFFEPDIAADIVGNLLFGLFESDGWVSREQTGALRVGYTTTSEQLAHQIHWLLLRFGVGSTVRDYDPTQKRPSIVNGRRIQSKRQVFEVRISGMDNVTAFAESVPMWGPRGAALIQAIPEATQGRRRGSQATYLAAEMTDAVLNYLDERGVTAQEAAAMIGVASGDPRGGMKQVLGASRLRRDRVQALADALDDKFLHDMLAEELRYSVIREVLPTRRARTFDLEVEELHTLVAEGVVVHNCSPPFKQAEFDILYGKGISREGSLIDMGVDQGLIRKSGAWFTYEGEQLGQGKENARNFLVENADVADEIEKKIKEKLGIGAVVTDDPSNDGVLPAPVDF

[16] = viability loss in HeLa cells – cytotoxicity control for MgcRacGAP inhibitor project, dose response (AID 624300); assay type: functional
[17] = molecular target: T5, Rac GTPase-activating protein 1 (Homo sapiens, UniProt Q9H0H5); test: blockers of MgcRacGAP-driven Rac1 GTP hydrolysis – biochemical, ADP Hunter fluorescence, primary and confirmatory, confirmation (AID 624330); assay type: functional
T5 sequence (Q9H0H5 whole entry): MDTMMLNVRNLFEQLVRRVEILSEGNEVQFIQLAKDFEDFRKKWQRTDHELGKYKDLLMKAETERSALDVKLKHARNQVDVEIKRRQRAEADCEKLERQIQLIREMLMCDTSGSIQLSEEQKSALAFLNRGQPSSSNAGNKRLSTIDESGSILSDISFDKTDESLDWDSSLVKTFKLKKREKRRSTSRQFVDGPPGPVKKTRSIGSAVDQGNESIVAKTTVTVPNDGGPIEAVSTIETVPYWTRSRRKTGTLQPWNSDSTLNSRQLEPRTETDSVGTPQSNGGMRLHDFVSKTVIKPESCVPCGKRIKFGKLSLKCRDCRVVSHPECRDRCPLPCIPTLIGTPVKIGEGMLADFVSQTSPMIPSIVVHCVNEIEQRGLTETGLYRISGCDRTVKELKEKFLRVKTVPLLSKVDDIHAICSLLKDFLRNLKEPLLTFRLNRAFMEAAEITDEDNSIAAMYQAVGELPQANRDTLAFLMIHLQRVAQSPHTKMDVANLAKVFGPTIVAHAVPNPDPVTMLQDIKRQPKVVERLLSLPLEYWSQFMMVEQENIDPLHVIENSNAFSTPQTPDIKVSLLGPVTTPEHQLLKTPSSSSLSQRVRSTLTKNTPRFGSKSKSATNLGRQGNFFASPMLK

SMILES	IC50 [1]	EC50 [2]	IC50 [3]	IC50 [7]	IC50 [8]	IC50 [9]	also measured
COc1ccc(-c2cc3nc(C4CCN(C(=O)OC(C)(C)C)CC4)c(C(=O)O)cn3n2)cc1	13.1 µM (active)	> 53 µM (inactive)	7.23 µM (active)	–	–	–	–
Cc1onc(-c2ccccc2Cl)c1C(=O)ON=C(N)c1ccc([N+](=O)[O-])o1	–	–	–	0.495 µM (active)	0.309 µM (active)	35.9 µM (inactive)	CC50 [4]: 17.9 µM (active); CC50 [5]: 14.9 µM (active); IC50 [6]: 2.13 µM (active)
Oc1nc(Nc2ccc3c(c2)OCCO3)nnc1Cc1ccccc1	–	–	–	35.9 µM (inactive)	1.87 µM (active)	35.9 µM (inactive)	EC50 [10]: > 160 µM (inconclusive); EC50 [11]: > 38 µM (not active)
O=C(O)c1ccc(NC(=S)NC(=O)c2ccc(-c3ccccc3)cc2)cc1	6.04 µM (active)	> 53 µM (inactive)	5.93 µM (active)	–	–	–	EC50 [10]: > 150 µM (inactive); EC50 [11]: 1.28 µM (active); EC50 [12]: 4.73 µM (active); EC50 [13]: > 71.5 µM (inactive)
COc1ccc(N2C(=O)CSC23C(=O)N2c4c(cccc43)C(C)=CC2(C)C)cc1 (stereo unspecified)	11 µM (active)	> 53 µM (inactive)	4.46 µM (active)	–	–	–	AC50 [14]: 10.3 µM (active); EC50 [15]: 35.6 µM (active)
CC(O)(c1ccc(F)c(F)c1)c1nc(-c2ccc(S(C)(=O)=O)cc2)cs1 (stereo unspecified)	–	–	–	11.3 µM (inactive)	1.91 µM (active)	35.8 µM (inactive)	–
COc1cc(/C=N/NC(=S)NC2CC3CCC2C3)ccc1O (stereo unspecified)	–	–	–	–	–	–	CC50 [16]: 100 µM (active); IC50 [17]: 48.8 µM (active)
